Usually MIC stands for the smallest concentration in the dilution series that meets the test's criterion for growth inhibition.

Data on nine compounds can be found in PMC7760514, “Fatty Acid Conjugation Leads to Length-Dependent Antimicrobial Activity of a Synthetic Antibacterial Peptide (Pep19-4LF)” (Antibiotics, 2020).

The subject of data set [1] is Rothia kristinae (DSM 20032). Kind of data set: Time-kill studies. The format is cell-based. As to the method: Time–kill studies were performed in accordance with CLSI guidelines. Therefore, Rothia kristinae DSM 20032 was adjusted to a concentration of 1 x 10^8 cfu/mL and further diluted to 1 × 10^6 cfu/mL in cation-adjusted MHB II. According to the previous determined MIC values of Pep19-4LF, C11-Pep19-4LF, and bacitracin (positive control) (Sigma Aldrich Chemie GmbH, München, Germany), samples were taken for 4 × MIC, 2 × MIC, 1 × MIC, and 0.5 × MIC after 30 min, 1 h, 2 h, 4 h, and 8 h. These samples were diluted in sterile saline and 10 µL of each sample was loaded onto agar plates. A bacterial suspension of 1 × 10^6 cfu/mL served as a growth control. Incubation occurred at 37 ± 1 °C and all counted colonies were recalculated to the colony number in the original inoculum.

Data set [2] has as its system Acinetobacter bohemicus (DSM 100419). Kind of data set: Minimal inhibitory concentration (MIC), broth microdilution. The format is cell-based. The arrangement: key to MIC value: MIC in μg/mL (lowest concentration without visible growth). Particulars: 30 ± 1 °C; for MIC value: Table S2, n=3, no unit given (main text uses µg/mL); for MIC: broth microdilution, cation-adjusted MHB II, 5 × 10^5 cfu/mL, read after 18 to 20 h, n = 3. As to the method:
(§1) Minimal inhibitory concentrations (MICs) were determined against Gram-positive Enterococcus faecium vanA (UL 602570*, clinical isolate from Institute for Medical Microbiology and Hygiene, Heidelberg University Hospital, Heidelberg, Germany), Staphylococcus aureus (ATCC 25923), Rothia kristinae (DSM 20032), and Gram-negative Acinetobacter bohemicus (DSM 100419) (all obtained from the Department of Infectious Diseases, Medical Microbiology and Hygiene, Heidelberg University, Heidelberg, Germany) in a 96-well polypropylene plate (650261 Greiner Bio-One GmbH, Frickenhausen, Germany) according to European Committee on Antimicrobial Susceptibility Testing (EUCAST) and The Clinical & Laboratory Standards Institute (CLSI) guidelines. Briefly, the stock solutions of the peptide conjugates in water were adjusted to a concentration of 1.28 mg/mL. Starting with the highest concentration of 64 μg/mL in 96-well polypropylene plates, dilution series in cation-adjusted Mueller–Hinton broth (MHB II; Sigma Aldrich, Steinheim, Germany) were performed, resulting in the lowest concentration of 0.125 μg/mL. A logarithmic growing bacterial culture was adjusted to a McFarland corresponding to 1 × 10^8 cfu/mL using a McFarland counter (DensiCHEK® plus, bioMerieux, Marcy-l’Étoile, France). Finally, a bacterial suspension of 1 × 10^6 cfu/mL (further diluted in MHB II) was added to each peptide-conjugate concentration. Thus, the final bacterial concentration in each well was 5 × 10^5 cfu/mL. The bacteria were incubated at 37 ± 1 °C (for A. bohemicus: 30 ± 1 °C) overnight and the bacterial growth was analyzed after 18 to 20 h. The MIC was defined as the lowest concentration of substance without any visible growth. Vancomycin and colistin sulfate were purchased from Sigma-Aldrich Chemie GmbH, München, Germany and Carl Roth GmbH, Karlsruhe, Germany.
In general terms: Broth dilution looks for growth in wells or tubes with falling amounts of substance.

The test system is the same in data set [3]. Kind of data set: Minimal bactericidal concentration (MBC). The format is cell-based. Particulars: Table S2, n=3; unit inferred; lowest concentration killing 99.9% of the inoculum; agar 24 h, 30 ± 1 °C. As to the method: (§2) Minimal bactericidal concentrations (MBCs) were determined by pipetting 3 µL of each broth dilution solution without visible growth onto a new agar plate. The agar plates were incubated at 37 ± 1 °C (for A. bohemicus: 30 ± 1 °C) for 24 h and were again analyzed with respect to bacterial growth. MBC is defined as the lowest concentration killing 99.9% of the inoculum.

For data set [4] the following is noted: rat, in vivo, iv.
Description: For this purpose, the tyrosine residues of the peptides were radiolabeled with ^125I (Hartmann Analytic GmbH, Braunschweig, Germany) using the chloramine-T method [28]. Free ^125I was separated by preparative HPLC as previously described by Schieck et al. [22]. Approximately 2 to 4 MBq of the radiolabeled peptides was injected intravenously into the tail vein and images were recorded immediately post injection and after 1 h, 2 h, 3 h, 5 h, and 24 h. Scintigraphical images were obtained by using a γ-camera (Gamma Imager, Biospace Lab, Paris, France).
Data set [5] relates to Enterococcus faecium (UL602570*, clinical isolate, vanA-resistant). Kind of data set: Minimal inhibitory concentration (MIC), broth microdilution. The format is cell-based. Particulars: cation-adjusted MHB II, 5 × 10^5 cfu/mL, 37 ± 1 °C, read after 18 to 20 h, n = 3. As to the method: as §1
Data set [6] relates to Staphylococcus aureus (ATCC 25923). The description is as above. To be noted: cation-adjusted MHB II, 5 × 10^5 cfu/mL, 37 ± 1 °C, read after 18 to 20 h, n = 3. The format is cell-based. On the procedure:
as §1

The test system of data set [7] is Rothia kristinae (DSM 20032). The data set can be described thus: Minimal bactericidal concentration (MBC). Particulars: Table 3 of supplement, n=3; unit inferred; lowest concentration killing 99.9% of the inoculum; agar 24 h, 37 ± 1 °C. The format is cell-based. As to the method:
as §2

Data set [8] concerns Rothia kristinae (DSM 20032). The data set can be described thus: Minimal inhibitory concentration (MIC), broth microdilution. The format is cell-based. To be noted: Table 3 of supplement, n=3; unit inferred; 37 ± 1 °C. As to the method: as §1

In brackets after ≈: the same amount, converted by molar mass. Peptide text beside a SMILES is read from it. * marks the point of attachment. Stearoyl = CCCCCCCCCCCCCCCCCC(=O)*; Palmitoyl = CCCCCCCCCCCCCCCC(=O)*; Myristoyl = CCCCCCCCCCCCCC(=O)*; Lauroyl = CCCCCCCCCCCC(=O)*; Decanoyl = CCCCCCCCCC(=O)*; Octanoyl = CCCCCCCC(=O)*

For bacitracin, in data set [1] (0.5 × MIC, 0 to 8 h, n = 3), the “change in number of cfu/mL” value is listed as “only a small decrease in the number of cfu/mL”. The mode of action entry in data set [1] (2 × MIC, n=3) is “bacteriostatic mode of action”; in data set [1] (4 × MIC, n = 3), “bactericidal activity”. In addition, the “time until no detectable cfu” value in data set [1] (4 × MIC, 1 × 10^6 cfu/mL in MHB II, 37 °C, n = 3) was 8 h.
Consider `CCCCCCCCCCCC(=O)NCC(=O)N[C@@H](CCCCN)C(=O)N[C@@H](CCCCN)C(=O)N[C@@H](Cc1ccc(O)cc1)C(=O)N[C@@H](CCCNC(=N)N)C(=O)N[C@@H](CCCNC(=N)N)C(=O)N[C@@H](Cc1ccccc1)C(=O)N[C@@H](CCCNC(=N)N)C(=O)N[C@@H](Cc1c[nH]c2ccccc12)C(=O)N[C@@H](CCCCN)C(=O)N[C@@H](Cc1ccccc1)C(=O)N[C@@H](CCCCN)C(=O)NCC(=O)N[C@@H](CCCCN)C(N)=O` [C12-Pep19-short] (Lauroyl-GKKYRRFRWKFKGK-NH2), for which the MIC value in data set [2] was 4. For the same compound, the MBC value in data set [3] is 4 µg/mL (≈ 1.94 µM).
Consider “GKKYRRFRWKFKGK-NH2 [Pep19-short, shortened variant of Pep19-4LF without hydrophobic moiety, …-NH2]”, for which the MIC value in data set [2] worked out at 64. In addition, the values for the minimal inhibitory concentration (MIC) in data set [2], in data set [5] and in data set [6] were 64 µg/mL, more than 64 µg/mL and more than 64 µg/mL, respectively. The “speed of elimination compared among the peptides” value in data set [4] is “no difference in the elimination time”. This compound also registered an MBC value in data set [3] of 64 µg/mL.
The compound `CCCCCCCC(=O)NCC(=O)N[C@@H](CCCCN)C(=O)N[C@@H](CCCCN)C(=O)N[C@@H](Cc1ccc(O)cc1)C(=O)N[C@@H](CCCNC(=N)N)C(=O)N[C@@H](CCCNC(=N)N)C(=O)N[C@@H](Cc1ccccc1)C(=O)N[C@@H](CCCNC(=N)N)C(=O)N[C@@H](Cc1c[nH]c2ccccc12)C(=O)N[C@@H](CCCCN)C(=O)N[C@@H](Cc1ccccc1)C(=O)N[C@@H](CCCCN)C(=O)NCC(=O)N[C@@H](CCCCN)C(N)=O` [C8-Pep19-short] (Octanoyl-GKKYRRFRWKFKGK-NH2) registered an MIC value in data set [2] of 8. In addition, the MBC value in data set [3] was 8 µg/mL (≈ 3.98 µM).
`CCCCCCCCCCCCCCCCCC(=O)NCC(=O)N[C@@H](CCCCN)C(=O)N[C@@H](CCCCN)C(=O)N[C@@H](Cc1ccc(O)cc1)C(=O)N[C@@H](CCCNC(=N)N)C(=O)N[C@@H](CCCNC(=N)N)C(=O)N[C@@H](Cc1ccccc1)C(=O)N[C@@H](CCCNC(=N)N)C(=O)N[C@@H](Cc1c[nH]c2ccccc12)C(=O)N[C@@H](CCCCN)C(=O)N[C@@H](Cc1ccccc1)C(=O)N[C@@H](CCCCN)C(=O)NCC(=O)N[C@@H](CCCCN)C(N)=O` [C18-Pep19-short] (Stearoyl-GKKYRRFRWKFKGK-NH2): the MIC value in data set [2] was more than 64; in data set [8] it was more than 64 µg/mL. For the same compound, the minimal inhibitory concentration (MIC) entry in data set [2] and in data set [6] was “higher MIC values” each time. Also, the MBC value in data set [3] and in data set [7] was more than 64 µg/mL each time.
Consider `CCCCCCCCCC(=O)NCC(=O)N[C@@H](CCCCN)C(=O)N[C@@H](CCCCN)C(=O)N[C@@H](Cc1ccc(O)cc1)C(=O)N[C@@H](CCCNC(=N)N)C(=O)N[C@@H](CCCNC(=N)N)C(=O)N[C@@H](Cc1ccccc1)C(=O)N[C@@H](CCCNC(=N)N)C(=O)N[C@@H](Cc1c[nH]c2ccccc12)C(=O)N[C@@H](CCCCN)C(=O)N[C@@H](Cc1ccccc1)C(=O)N[C@@H](CCCCN)C(=O)NCC(=O)N[C@@H](CCCCN)C(N)=O` [C10-Pep19-short] (Decanoyl-GKKYRRFRWKFKGK-NH2), for which, in data set [2], the MIC value is 4. Further, the MBC value in data set [3] came to 4 µg/mL (≈ 1.96 µM).
The corresponding values for `N=C(N)NCCC[C@H](NC(=O)[C@H](Cc1ccc(O)cc1)NC(=O)[C@H](CCCCN)NC(=O)[C@H](CCCCN)NC(=O)[C@H](CS)NC(=O)CN)C(=O)N[C@@H](CCCNC(=N)N)C(=O)N[C@@H](Cc1ccccc1)C(=O)N[C@@H](CCCNC(=N)N)C(=O)N[C@@H](Cc1c[nH]c2ccccc12)C(=O)N[C@@H](CCCCN)C(=O)N[C@@H](Cc1ccccc1)C(=O)N[C@@H](CCCCN)C(=O)NCC(=O)N[C@@H](CCCCN)C(=O)N[C@@H](Cc1ccccc1)C(=O)N[C@@H](Cc1c[nH]c2ccccc12)C(=O)N[C@@H](Cc1ccccc1)C(=O)N[C@@H](Cc1c[nH]c2ccccc12)C(=O)NCC(N)=O` [Pep19-2.5, reference compound] are more than 64 and more than 64 µg/mL.
The compound `CCCCCCCCCCCCCCCC(=O)NCC(=O)N[C@@H](CCCCN)C(=O)N[C@@H](CCCCN)C(=O)N[C@@H](Cc1ccc(O)cc1)C(=O)N[C@@H](CCCNC(=N)N)C(=O)N[C@@H](CCCNC(=N)N)C(=O)N[C@@H](Cc1ccccc1)C(=O)N[C@@H](CCCNC(=N)N)C(=O)N[C@@H](Cc1c[nH]c2ccccc12)C(=O)N[C@@H](CCCCN)C(=O)N[C@@H](Cc1ccccc1)C(=O)N[C@@H](CCCCN)C(=O)NCC(=O)N[C@@H](CCCCN)C(N)=O` [C16-Pep19-short] (Palmitoyl-GKKYRRFRWKFKGK-NH2) showed an MIC value in data set [2] of more than 64. For the same compound, the MIC entry in data set [2] and in data set [6] was “higher MIC values” throughout. In data set [3], this compound returned an MBC value of more than 64 µg/mL.
Compound `CCCCCCCCCCCCCC(=O)NCC(=O)N[C@@H](CCCCN)C(=O)N[C@@H](CCCCN)C(=O)N[C@@H](Cc1ccc(O)cc1)C(=O)N[C@@H](CCCNC(=N)N)C(=O)N[C@@H](CCCNC(=N)N)C(=O)N[C@@H](Cc1ccccc1)C(=O)N[C@@H](CCCNC(=N)N)C(=O)N[C@@H](Cc1c[nH]c2ccccc12)C(=O)N[C@@H](CCCCN)C(=O)N[C@@H](Cc1ccccc1)C(=O)N[C@@H](CCCCN)C(=O)NCC(=O)N[C@@H](CCCCN)C(N)=O` [C14-Pep19-short] (Myristoyl-GKKYRRFRWKFKGK-NH2) came in with an MIC value in data set [2] of 8. Moreover, the MBC value in data set [3] was found to be 8 µg/mL (≈ 3.82 µM).
